The results in this text go back to patent US20110178139A1, “Pyridoxamine for the Treatment of Diabetic Kidney Disease” (priority 2004, published 2011).

Data set [1] deals with diabetic nephropathy patients. The data set is described as follows: Separate study: six months of escalating doses of pyridoxamine dihydrochloride in addition to standard of care. Format: in vivo, human. The method, then:
In a separate study, diabetic nephropathy patients received six months of treatment of escalating doses of pyridoxamine dihydrochloride (50 mg, 100 mg, and 250 mg), administered orally via capsules twice daily as follows:
50 mg bid for 2 weeks, then if tolerated:
10 mg bid for 2 weeks, then if tolerated:
The study drug was administered in addition to standard of care therapy. The patient population consisted of male and female patients between 18 and 70 years of age with diabetic nephropathy associated with type 1 or type 2 diabetes, serum creatinine of […], and macroalbuminuria confirmed with baseline urinary albumin excretion≧300 mg/24 his.
84 patients received at least one dose of the study drug (57 pyridoxamine dihydrochloride; 27 placebo.
Baseline characteristics of the patients included serum creatinine of 1.91 mg/dL and urinary albumin excretion of 957 mg/12 h in treatment, versus 1.95 mg/dL and 1224 mg/12 h in placebo groups.

Data set [2] concerns patients with type 1 and type 2 DM and overt nephropathy. In words: Randomized, double-blind, placebo-controlled, multicenter trial (PYR206) of PYR 50 mg b.i.d. for six months. Type of data set: in vivo, human. Here is the method:
A randomized, double-blind, placebo-controlled, multicenter trial which examined the safety profile of pyridoxamine dihydrochloride (PYR) in patients with type 1 and type 2 DM and overt nephropathy was conducted. 128 patients (48 type 1, 80 type 2) at 32 sites were randomized to receive either PYR 50 mg twice a day (b.i.d) or placebo for six months, 58 patients in each group completed the study. Groups were well matched at baseline for age, race, gender, blood pressure, hemoglobin AlC (HbAlC), and angiotensin converting enzyme inhibitor (ACEI)/angiotensin receptor blocker (ARB) use.
Baseline characteristics of the patients included serum creatinine=1.27 mg/dL and urinary albumin excretion=868 mg/12 h in treatment, versus 1.33 mg/dL and 1055 mg/12 h in placebo groups (differences not significant, NS).
In addition, the urinary levels of TGF beta in the subjects completing the PYR206 study (combined type 1 and type 2 patients) were tested. This growth factor is an important and accepted marker of renal disease, since it initiates or controls a cascade of cellular changes (from diabetes and other diseases) that lead to mesangial expansion and eventually fibrosis in the kidney. […] This is strong evidence of the action of PYR in retarding or halting the nephropathy due to the diabetes.

Setting [3] is: escalating doses 50, 100, 250 mg bid, six months, no significant difference vs placebo.
[4] abbreviates: PYR 50 mg b.i.d., six months, no significant difference vs placebo.

`Cc1ncc(CO)c(CN)c1O.Cl.Cl` [PYR, pyridoxamine dihydrochloride]: the serious adverse events in data set [1] (escalating doses 50, 100, 250 mg bid, six months, higher rate than placebo (3.7%)) is reported as 21.1%; in data set [2] (setting [4]), 11%. Also, the “study discontinuation due to AE's” value turned out to be 8.8% in data set [1] (setting [3]) and 6% in data set [2] (setting [4]). Besides, the treatment-related adverse events in data set [1] (setting [3]) is recorded as 35.1%; in data set [2] (setting [4]), 26%. Moreover, the “rate of rise in serum creatinine” value in data set [1] (type 2 patients taking ACE-I or ARB with baseline serum creatinine ≧1.3 mg/dL (predefined subgroup), p<0.0001 vs placebo) is 0.144 mg/dL/yr; in data set [2] (patients with baseline serum creatinine ≧1.3 mg/dL, p<0.0001 vs placebo), 0.17 mg/dL/yr; in data set [2] (type 2 patients taking ACE-I or ARB with baseline serum creatinine ≧1.3 mg/dL (predefined subgroup), p<0.0057 vs placebo), 0.138 mg/dL/yr. In data set [2] (PYR 50 mg b.i.d., six months, vs placebo), the scored neurotoxicity testing result is “No significant differences”. In data set [2] (all patients, 50 mg b.i.d., six months, p=0.0065 by ANOVA vs placebo), the “mean rate of rise in serum creatinine” value came to 0.178 mg/dL/yr. The “rise in mean urinary albumin excretion rate” value in data set [2] (all patients, p=0.017, ANOVA vs placebo) worked out at 122 mg/12 h/yr. The “decrease in urinary TGF beta levels (pg TGF/mg Cr)” value in data set [2] (combined type 1 and type 2 patients completing the study, six months, preliminary analysis, placebo increased 43%) is listed as “about 24%”. The rise in albuminuria entry in data set [2] (patients with baseline HbAlC over 7.275%, p=0.0282, ANOVA) was “reversed”. Moreover, the “incidence of sensory system neurologic adverse events” value in data set [2] (vs placebo (Table 5)) is on record as “significantly reduced”.
